Experimental data published in ChEMBL document CHEMBL1157937, “Discovery of novel leukotriene A4 hydrolase inhibitors based on piperidine and piperazine scaffolds” (Bioorg Med Chem Lett, 2010).

What was measured:
[1] = molecular target: T1, Leukotriene A-4 hydrolase (Homo sapiens, UniProt P09960)
T1 sequence (P09960 whole entry): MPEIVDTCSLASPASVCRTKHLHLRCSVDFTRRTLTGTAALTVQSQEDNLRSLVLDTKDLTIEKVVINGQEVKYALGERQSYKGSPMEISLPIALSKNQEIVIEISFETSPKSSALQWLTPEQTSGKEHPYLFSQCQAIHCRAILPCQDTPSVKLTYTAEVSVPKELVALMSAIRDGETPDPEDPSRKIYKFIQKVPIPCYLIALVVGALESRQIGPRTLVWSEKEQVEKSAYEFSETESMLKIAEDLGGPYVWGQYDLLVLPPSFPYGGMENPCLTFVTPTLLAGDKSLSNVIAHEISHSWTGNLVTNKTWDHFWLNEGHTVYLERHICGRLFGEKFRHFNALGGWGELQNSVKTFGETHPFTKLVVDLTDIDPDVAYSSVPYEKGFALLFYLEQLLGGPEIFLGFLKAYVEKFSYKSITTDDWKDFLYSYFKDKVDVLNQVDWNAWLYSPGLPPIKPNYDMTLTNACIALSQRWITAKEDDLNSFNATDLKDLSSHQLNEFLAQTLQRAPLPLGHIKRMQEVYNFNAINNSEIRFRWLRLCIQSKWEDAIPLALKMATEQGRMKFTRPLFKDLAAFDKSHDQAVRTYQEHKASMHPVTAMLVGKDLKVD
Description: Inhibition of human recombinant LTA4H hydrolysis assessed as inhibition of LTB4 formation by LC-MS/MS

[2] = molecular target: T1, Leukotriene A-4 hydrolase; remark: listed apart in the source
Description: Inhibition of human LTA4H hydrolysis assessed as inhibition of Ca2+ ionophore-stimulated LTB4 formation in human whole blood by ELISA

SMILES | IC50 [1] [µM] | IC50 [2] [µM]
c1ccc(-c2ccc(Oc3ccc(OC[C@H]4CCCCN4)cc3)cc2)cc1 | 0.096 | 0.029
c1ccc(Oc2ccc(OCC3CCCCN3)cc2)cc1 (racemic) | 0.07 | 0.207
c1ccc(Cc2ccc(OCC3CNCCN3)cc2)cc1 (configuration not stated) | 0.342 | –
c1ccc(Oc2ccc(OC[C@@H]3CCCCN3)cc2)cc1 | 0.044 | 0.286
FC(F)(F)c1ccc(Oc2ccc(OC[C@H]3CCCCN3)cc2)cc1 | 0.093 | 0.173
c1ccc(Cc2ccc(OCC3CN(Cc4ccccc4)CCN3)cc2)cc1 (configuration not stated) | 0.66 | –
O=C(O)CCCN1CCCC[C@@H]1COc1ccc(Oc2ccc(Cl)cc2)cc1 | 0.053 | 0.006
Fc1ccc(Oc2ccc(OC[C@@H]3CCCCN3)cc2)cc1 | 0.174 | 0.09
O=C(O)CCCN1CCCC[C@H]1COc1ccc(Oc2ccc(Cl)cc2)cc1 | 0.106 | 0.023
c1ccc(Cc2ccc(OCC3CCCCN3)cc2)cc1 (racemic) | 0.134 | 0.105
c1ccc(Oc2ccc(OC[C@H]3CCCCN3)cc2)cc1 | 0.048 | 0.126
Clc1ccc(Cc2ccc(OC[C@H]3CCCCN3)cc2)cc1 | 0.315 | –
O=C(O)CCN1CCCC[C@H]1COc1ccc(Oc2ccc(Cl)cc2)cc1 | 0.212 | –

Further compounds by falling IC50 [1], results first:

IC50 [1] [µM] | IC50 [2] [µM] | SMILES
6.9 | – | Clc1ccc(Oc2ccc(OC[C@@H]3CCCCN3Cc3ncon3)cc2)cc1
0.88 | – | O=C(O)CN1CCCC[C@H]1COc1ccc(Oc2ccc(Cl)cc2)cc1
0.438 | – | Clc1ccc(Cc2ccc(OC[C@@H]3CCCCN3)cc2)cc1
0.114 | 0.043 | c1ccc(-c2ccc(Oc3ccc(OC[C@@H]4CCCCN4)cc3)cc2)cc1
0.11 | 0.04 | Clc1ccc(Oc2ccc(OC[C@@H]3CCCCN3)cc2)cc1
0.094 | 0.06 | c1ccc(Cc2ccc(OC[C@H]3CCCCN3)cc2)cc1
0.06 | – | c1cc(-c2ccc(Cc3ccc(OC[C@@H]4CCCCN4)cc3)cc2)cs1
